According to patent US11008346B2, “Beta-lactamase inhibitors” (priority 2014, dated 2021):
Like-named read-outs stand apart in the source and are kept apart here.

Assays:
[1] = molecular target: T1, SHV-5 β-lactamase (Klebsiella pneumoniae, UniProt P0A3M1); assay: β-lactamase enzyme inhibition, SHV-5; type: biochemical
T1 construct: made in house; host or cells: E. coli BL21(DE3)
Summary of the method: (§1)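 IC50 was the inhibitor concentration halving the initial hydrolysis rate versus no-inhibitor wells, following a 15 min 37° C. enzyme–inhibitor preincubation. Substrates: imipenem read at 300 nm for KPC-2, cefotaxime at 260 nm for SHV-5, and nitrocefin (100 μM final) at 486 nm for OXA-1 and p99 AmpC. Enzymes were recombinant untagged proteins from E. coli BL21(DE3).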

[2] = molecular target: T2, p99 AmpC β-lactamase (Enterobacter cloacae, UniProt P05364); assay: β-lactamase enzyme inhibition, p99 AmpC; type: biochemical
T2 construct: made in house; host or cells: E. coli BL21(DE3)
Summary of the method: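 Inhibitor and enzyme were incubated 15 min at 37°C first. The enzyme was recombinant p99 AmpC, untagged, from E. coli BL21(DE3), purified by ion-exchange and size-exclusion chromatography.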

[3] = molecular target: T3, VIM-2 metallo β-lactamase (Pseudomonas aeruginosa, UniProt Q9K2N0); assay: β-lactamase enzyme inhibition, VIM-2; type: biochemical; settings: Nitrocefin 100 μM, 486 nm; 15 min at 37° C. preincubation; read-out: IC50 VIM-2 (Class B)
T3 construct: made in house; host or cells: E. coli BL21(DE3)
Summary of the method: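 Inhibitor and enzyme sat together 15 min at 37° C before 100 μM nitrocefin (final) was added and 486 nm absorbance read for 10 min. IC50 is the concentration halving initial hydrolysis rate relative to uninhibited wells. Protein came from Q sepharose anion exchange at pH 7.5, repeated to >90% purity.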

[4] = tested on: E. coli ESBL4 expressing CTX-M-15; assay: broth microdilution MIC, E. coli CTX-M-15; type: cell-based; settings: Fixed CAZ (ceftazidime) 4 μg/mL
Summary of the method: (§2)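 CAMHB; strains pre-grown 3-5 h. Test cpd 2-fold dilutions, 32→0.25 μg/mL final, + beta-lactam static 4 μg/mL. CLSI inoculation, 16-20 h at 37° C, visual MIC.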

[5] = tested on: E. cloacae 144200 expressing Class C P99 AmpC; assay: broth microdilution MIC, E. cloacae P99; type: cell-based; settings: Fixed CAZ (ceftazidime) 4 μg/mL
Summary of the method: as §2

[6] = molecular target: T4, KPC-2 β-lactamase (Klebsiella pneumoniae, UniProt Q9F663); assay: β-lactamase enzyme inhibition, KPC-2; type: biochemical
T4 construct: made in house; host or cells: E. coli BL21(DE3)
Summary of the method: as §1

[7] = tested on: K. pneumoniae A-1797 expressing KPC-2 and VIM-4; assay: broth microdilution MIC, K. pneumoniae KPC-2 and VIM-4; type: cell-based; settings: for MIC of exemplary compounds in presence of fixed β-lactams, K.P. A-1797 KPC-2 VIM-4: Fixed Mero (meropenem) 4 μg/mL
Summary of the method: as §2

[8] = tested on: K. pneumoniae 156319 expressing KPC-3; assay: broth microdilution MIC, K. pneumoniae KPC-3; type: cell-based; settings: for MIC of exemplary compounds in presence of fixed β-lactams, K.P. 156319 KPC-3: Fixed Mero (meropenem) 4 μg/mL
Summary of the method: as §2

[9] = tested on: P. aeruginosa Ps296 expressing VIM-2; assay: broth microdilution MIC, P. aeruginosa VIM-2; type: cell-based; settings: for MIC of exemplary compounds in presence of fixed β-lactams, P. aerug. Ps296 VIM-2: Fixed Mero (meropenem) 4 μg/mL
Source text: To determine the ability of test compounds to potentiate the inhibition of the growth of bacterial strains that produce beta-lactamase enzymes, classic cell based broth microdilution MIC assays were employed. Six bacteria strains producing beta-lactamase enzymes were used: E. coli expressing the Class A Extended Spectrum Beta-Lactamase (ESBL) CTX-M-15, E. cloacae expressing the Class C P99, K. pneumoniae expressing the Class A carbapenemase KPC-3, P. aeruginosa expressing the Class B carbapenemase VIM-2, K pneumoniae expressing the class A carbapenemase KPC-2 and the class B carbapenemase VIM-4, and S. aureus producing the Class A penicillinase PC-1. The assay was conducted in Cation Adjusted Mueller Hinton Broth (CAMHB, BD #212322, BD Diagnostic Systems, Sparks, Md.). Bacteria strains were grown for 3-5 hours in CAMBH broth. Test compounds were added to a microtiter plate in 2-fold serial dilutions in CAMHB in a final concentration range of 32 μg/mL to 0.25 μg/ml. An overlay of CAMHB containing a Beta-lactam was added to the compounds at a final static concentration of 4 μg/ml. […] In addition to the titration of test compounds the MICs of a panel of control beta-lactams is also tested to ensure the strains are behaving consistently from test to test. Once the test compound and antibiotics are added the plates can be inoculated according to CLSI broth microdilution method. After inoculation the plates are incubated for 16-20 hours at 37° C., then the Minimal Inhibitory Concentration (MIC) of the test compound is determined visually.
Using the methodology described above, examples of the current invention were evaluated for their ability to inhibit the growth of β-lactamase-producing bacteria in the presence of a β-lactam antibiotic.
Representative results are shown in Table 4 where A represents an MIC of the fixed β-lactam antibiotic in the presence of >32 µg/mL of a β-lactamase inhibitor of exemplary compounds, B represents the MIC in the presence of between 8 and 32 µg/mL of a β-lactamase inhibitor of exemplary compounds, and C represents the MIC in the presence of ≤4 µg/mL of a β-lactamase inhibitor of exemplary compounds. NT=Not Tested.

[10] = molecular target: T5, OXA-1 β-lactamase (Escherichia coli, UniProt P13661); assay: β-lactamase enzyme inhibition, OXA-1; type: biochemical; settings: Nitrocefin 100 μM, 486 nm; 15 min at 37° C. preincubation; read-out: IC50 OXA-1 (Class D)
T5 construct: made in house; host or cells: E. coli BL21(DE3)
Summary of the method: as §1

[11] = imipenem substrate, 300 nm, 15 min at 37° C. preincubation, read-out: IC50 KPC-2 (Class A)
[12] = Klebsiella pneumoniae, read-out: MIC alone

T2 sequence (P05364 21-381): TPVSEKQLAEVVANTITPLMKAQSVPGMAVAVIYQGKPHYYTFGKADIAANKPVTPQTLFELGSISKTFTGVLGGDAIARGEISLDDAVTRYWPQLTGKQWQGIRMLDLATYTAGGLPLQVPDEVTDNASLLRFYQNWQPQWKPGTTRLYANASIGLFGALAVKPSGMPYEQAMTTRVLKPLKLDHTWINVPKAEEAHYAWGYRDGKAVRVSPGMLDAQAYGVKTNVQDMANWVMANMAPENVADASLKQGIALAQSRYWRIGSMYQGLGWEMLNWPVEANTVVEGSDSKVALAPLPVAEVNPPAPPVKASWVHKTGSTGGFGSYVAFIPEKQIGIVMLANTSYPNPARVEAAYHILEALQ
T1 sequence (P0A3M1 22-286): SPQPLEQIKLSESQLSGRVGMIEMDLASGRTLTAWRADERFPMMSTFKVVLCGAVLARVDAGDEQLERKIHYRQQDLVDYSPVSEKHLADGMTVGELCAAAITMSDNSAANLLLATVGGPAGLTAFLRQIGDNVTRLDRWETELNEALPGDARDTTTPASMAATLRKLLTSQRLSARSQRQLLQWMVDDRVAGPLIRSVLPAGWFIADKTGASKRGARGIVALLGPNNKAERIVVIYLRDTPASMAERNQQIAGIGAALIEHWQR
T4 sequence (Q9F663 25-293, looked up): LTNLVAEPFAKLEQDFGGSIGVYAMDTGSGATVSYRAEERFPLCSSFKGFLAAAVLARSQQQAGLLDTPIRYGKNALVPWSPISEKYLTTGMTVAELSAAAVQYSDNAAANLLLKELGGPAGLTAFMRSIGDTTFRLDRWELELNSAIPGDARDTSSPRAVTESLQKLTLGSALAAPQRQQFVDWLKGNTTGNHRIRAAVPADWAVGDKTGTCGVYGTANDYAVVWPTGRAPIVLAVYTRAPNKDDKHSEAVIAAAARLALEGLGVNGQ
T5 sequence (P13661 26-276): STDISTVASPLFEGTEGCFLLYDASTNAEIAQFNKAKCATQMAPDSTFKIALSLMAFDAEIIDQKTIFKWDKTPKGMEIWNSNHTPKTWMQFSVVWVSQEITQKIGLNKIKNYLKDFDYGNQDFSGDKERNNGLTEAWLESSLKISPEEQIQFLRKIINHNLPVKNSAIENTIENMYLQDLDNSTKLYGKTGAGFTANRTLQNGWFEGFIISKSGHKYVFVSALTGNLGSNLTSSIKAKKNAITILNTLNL

O=C(CCC(F)(F)F)N[C@H]1Cc2cccc(C(=O)O)c2OB1O [Example 7, (R)-2-Hydroxy-3-(4,4,4-trifluoro-butyrylamino)-3,4-dihydro-2H-benzo[e][1,2]oxaborinine-8-carboxylic acid]
IC50 [1]: < 100 nM
IC50 [2]: < 100 nM
IC50 [3]: 1000 to 10000 nM
MIC of exemplary compounds in presence of fixed β-lactams, E. coli ESBL4 CTX-M-15 [4]: C (C represents the MIC in the presence of ≤4 g/mL of a β-lactamase inhibitor)
MIC of exemplary compounds in presence of fixed β-lactams, E. cl. 144200 p99 AmpC [5]: C (C represents the MIC in the presence of ≤4 g/mL of a β-lactamase inhibitor)
IC50 [6]: < 100 nM
MIC of exemplary compounds in presence of fixed β-lactams, K.P. A-1797 KPC-2 VIM-4 [7]: A (A represents an MIC of the fixed β-lactam antibiotic in the presence of >32 g/mL of a β-lactamase inhibitor)
MIC of exemplary compounds in presence of fixed β-lactams, K.P. 156319 KPC-3 [8]: C (C represents the MIC in the presence of ≤4 g/mL of a β-lactamase inhibitor)
MIC of exemplary compounds in presence of fixed β-lactams, P. aerug. Ps296 VIM-2 [9]: B (B represents the MIC in the presence of between 8 and 32 g/mL of a β-lactamase inhibitor)
IC50 [10]: < 100 nM

O=C(CC(C(F)(F)F)C(F)(F)F)N[C@H]1Cc2cccc(C(=O)O)c2OB1O [Example 9, (R)-2-Hydroxy-3-(4,4,4-trifluoro-3-trifluoromethyl-butyrylamino)-3,4-dihydro-2H-benzo[e][1,2]oxaborinine-8-carboxylicacid]
IC50 [1]: < 100 nM
IC50 [2]: < 100 nM
IC50 [3]: 10000 to 100000 nM
MIC of exemplary compounds in presence of fixed β-lactams, E. coli ESBL4 CTX-M-15 [4]: B (B represents the MIC in the presence of between 8 and 32 g/mL of a β-lactamase inhibitor)
MIC of exemplary compounds in presence of fixed β-lactams, E. cl. 144200 p99 AmpC [5]: C (C represents the MIC in the presence of ≤4 g/mL of a β-lactamase inhibitor)
IC50 [6, 11]: 100 to 1000 nM
MIC of exemplary compounds in presence of fixed β-lactams, K.P. A-1797 KPC-2 VIM-4 [7]: A (A represents an MIC of the fixed β-lactam antibiotic in the presence of >32 g/mL of a β-lactamase inhibitor)
MIC of exemplary compounds in presence of fixed β-lactams, K.P. 156319 KPC-3 [8]: B (B represents the MIC in the presence of between 8 and 32 g/mL of a β-lactamase inhibitor)
MIC of exemplary compounds in presence of fixed β-lactams, P. aerug. Ps296 VIM-2 [9]: A (A represents an MIC of the fixed β-lactam antibiotic in the presence of >32 g/mL of a β-lactamase inhibitor)
IC50 [10]: 100 to 1000 nM

N#CCCC(=O)N[C@H]1Cc2cc(F)c(F)c(C(=O)O)c2OB1O [Example 49, (R)-3-(3-Cyano-propionylamino)-6,7-difluoro-2-hydroxy-3,4-dihydro-2H-benzo[e][1,2]oxaborinine-8-carboxylic acid]
IC50 [1]: < 100 nM
IC50 [2]: 100 to 1000 nM
IC50 [3]: 1000 to 10000 nM
MIC of exemplary compounds in presence of fixed β-lactams, E. coli ESBL4 CTX-M-15 [4]: C (C represents the MIC in the presence of ≤4 g/mL of a β-lactamase inhibitor)
MIC of exemplary compounds in presence of fixed β-lactams, E. cl. 144200 p99 AmpC [5]: C (C represents the MIC in the presence of ≤4 g/mL of a β-lactamase inhibitor)
IC50 [6, 11]: < 100 nM
MIC of exemplary compounds in presence of fixed β-lactams, K.P. A-1797 KPC-2 VIM-4 [7]: B (B represents the MIC in the presence of between 8 and 32 g/mL of a β-lactamase inhibitor)
MIC of exemplary compounds in presence of fixed β-lactams, K.P. 156319 KPC-3 [8]: C (C represents the MIC in the presence of ≤4 g/mL of a β-lactamase inhibitor)
IC50 [10]: < 100 nM

CC(=O)CCC(=O)N[C@H]1Cc2cc(F)c(F)c(C(=O)O)c2OB1O [Example 50, (R)-6,7-Difluoro-2-hydroxy-3-(4-oxo-pentanoylamino)-3,4-dihydro-2H-benzo[e][1,2]oxaborinine-8-carboxylic acid]
IC50 [1]: < 100 nM
IC50 [2]: 100 to 1000 nM
IC50 [3]: 100 to 1000 nM
MIC of exemplary compounds in presence of fixed β-lactams, E. coli ESBL4 CTX-M-15 [4]: C (C represents the MIC in the presence of ≤4 g/mL of a β-lactamase inhibitor)
MIC of exemplary compounds in presence of fixed β-lactams, E. cl. 144200 p99 AmpC [5]: C (C represents the MIC in the presence of ≤4 g/mL of a β-lactamase inhibitor)
IC50 [6, 11]: < 100 nM
MIC of exemplary compounds in presence of fixed β-lactams, K.P. A-1797 KPC-2 VIM-4 [7]: B (B represents the MIC in the presence of between 8 and 32 g/mL of a β-lactamase inhibitor)
MIC of exemplary compounds in presence of fixed β-lactams, K.P. 156319 KPC-3 [8]: B (B represents the MIC in the presence of between 8 and 32 g/mL of a β-lactamase inhibitor)
IC50 [10]: < 100 nM

CS(=O)(=O)NCCC(=O)N[C@H]1Cc2cc(F)c(F)c(C(=O)O)c2OB1O [Example 51, (R)-6,7-Difluoro-2-hydroxy-3-(3-methanesulfonylamino-propionylamino)-3,4-dihydro-2H-benzo[e][1,2]oxaborinine-8-carboxylic acid]
IC50 [1]: < 100 nM
IC50 [2]: < 100 nM
IC50 [3]: 1000 to 10000 nM
MIC of exemplary compounds in presence of fixed β-lactams, E. coli ESBL4 CTX-M-15 [4]: C (C represents the MIC in the presence of ≤4 g/mL of a β-lactamase inhibitor)
MIC of exemplary compounds in presence of fixed β-lactams, E. cl. 144200 p99 AmpC [5]: C (C represents the MIC in the presence of ≤4 g/mL of a β-lactamase inhibitor)
IC50 [6, 11]: < 100 nM
MIC of exemplary compounds in presence of fixed β-lactams, K.P. A-1797 KPC-2 VIM-4 [7]: B (B represents the MIC in the presence of between 8 and 32 g/mL of a β-lactamase inhibitor)
MIC of exemplary compounds in presence of fixed β-lactams, K.P. 156319 KPC-3 [8]: C (C represents the MIC in the presence of ≤4 g/mL of a β-lactamase inhibitor)
IC50 [10]: < 100 nM

O=C(CCNS(=O)(=O)C(F)(F)F)N[C@H]1Cc2cccc(C(=O)O)c2OB1O [Example 52, (R)-2-Hydroxy-3-(3-trifluoromethanesulfonylamino-propionylamino)-3,4-dihydro-2H-benzo[e][1,2]oxaborinine-8-carboxylic acid]
IC50 [1]: < 100 nM
IC50 [2]: < 100 nM
IC50 [3]: 1000 to 10000 nM
MIC of exemplary compounds in presence of fixed β-lactams, E. coli ESBL4 CTX-M-15 [4]: C (C represents the MIC in the presence of ≤4 g/mL of a β-lactamase inhibitor)
MIC of exemplary compounds in presence of fixed β-lactams, E. cl. 144200 p99 AmpC [5]: C (C represents the MIC in the presence of ≤4 g/mL of a β-lactamase inhibitor)
IC50 [6, 11]: < 100 nM
MIC of exemplary compounds in presence of fixed β-lactams, K.P. A-1797 KPC-2 VIM-4 [7]: B (B represents the MIC in the presence of between 8 and 32 g/mL of a β-lactamase inhibitor)
MIC of exemplary compounds in presence of fixed β-lactams, K.P. 156319 KPC-3 [8]: B (B represents the MIC in the presence of between 8 and 32 g/mL of a β-lactamase inhibitor)
IC50 [10]: < 100 nM

C[C@@H](O)[C@H]1C(=O)N2C(C(=O)O)=C(S[C@@H]3CN[C@H](C(=O)N(C)C)C3)[C@H](C)[C@H]12 [Meropenem, meropenem, reference compound]
MIC [7, 12]: 64 µg/mL
MIC [8, 12]: > 128 µg/mL
MIC alone ([9]; partner antibiotic alone, P. aeruginosa expressing VIM-2): 16 µg/mL
